In one assay the target is T1, human VPAC1 receptor (Homo sapiens, UniProt P32241).
T1 construct: expressed in transfected cells; host or cells: CHO cells (G418 selection)
T1 sequence (P32241 31-457): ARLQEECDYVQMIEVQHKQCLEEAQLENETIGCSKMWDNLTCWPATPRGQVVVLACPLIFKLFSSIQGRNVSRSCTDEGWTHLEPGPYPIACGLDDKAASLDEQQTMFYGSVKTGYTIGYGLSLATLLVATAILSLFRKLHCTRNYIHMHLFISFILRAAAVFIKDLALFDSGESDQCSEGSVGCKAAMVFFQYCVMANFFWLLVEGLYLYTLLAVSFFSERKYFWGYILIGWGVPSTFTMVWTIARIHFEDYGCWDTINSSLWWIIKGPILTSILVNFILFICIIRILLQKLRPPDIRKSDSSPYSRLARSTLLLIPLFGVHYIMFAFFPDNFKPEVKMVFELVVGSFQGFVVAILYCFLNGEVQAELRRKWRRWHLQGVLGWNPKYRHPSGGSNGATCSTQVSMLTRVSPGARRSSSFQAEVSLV
As to the kind of experiment: cAMP stimulation in CHO cells expressing VPAC1. It counts as cell-based.

The target of another assay is T2, human PAC1 receptor (Homo sapiens, UniProt P41586).
T2 construct: expressed in transfected cells; host or cells: CHO cells (G418 selection)
T2 sequence (P41586 21-468): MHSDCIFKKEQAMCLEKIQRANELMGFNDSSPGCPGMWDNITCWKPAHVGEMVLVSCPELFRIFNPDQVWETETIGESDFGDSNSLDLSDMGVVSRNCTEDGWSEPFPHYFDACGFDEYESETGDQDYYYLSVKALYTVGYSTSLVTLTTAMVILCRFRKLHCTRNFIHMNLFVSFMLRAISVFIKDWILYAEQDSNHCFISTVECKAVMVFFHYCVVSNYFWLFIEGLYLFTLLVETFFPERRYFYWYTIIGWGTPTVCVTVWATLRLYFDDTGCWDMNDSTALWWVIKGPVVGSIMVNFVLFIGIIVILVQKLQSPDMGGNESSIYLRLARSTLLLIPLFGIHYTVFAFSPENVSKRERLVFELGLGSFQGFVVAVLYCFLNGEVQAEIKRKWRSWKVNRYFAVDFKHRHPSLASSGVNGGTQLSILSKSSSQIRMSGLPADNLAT
As to the kind of experiment: cAMP stimulation in CHO cells expressing PAC1. The note with it: for Emax: CHO. It is filed as cell-based. As to the method:
Briefly, human PAC1, VPAC1, and VPAC2 receptors expressed in CHO cells were used for all experiments. Cells were grown in 50:50 DMEM-F12 medium with 10% heat-inactivated fetal bovine serum, 1X penicillin-streptomycin supplement, and 500 μg/ml G418 (neomycin) to maintain selection (all from ThermoFisher) at 37°C with 5% CO2 atmosphere. For the cAMP assay, cells were seeded at 20,000 cells/well in a 96 well plate, recovered overnight, then serum starved for 4 h. The cells were then incubated with 500 μM IBMX for 20 min, followed by agonist concentration curves in 500 μM IBMX media for 10 min. The reaction was terminated, boiled, then collected, followed by competition with 7 μg of bovine protein kinase A (Sigma-Aldrich) and ∼1 pmol of ^3H-cAMP (PerkinElmer). The assay was incubated at room temp for 1 h, then collected onto GF/B filter plates and the data read using a MicroBeta2 scintillation counter (PerkinElmer).

Read-outs that look alike come from different tables or passages of the source.

In general, Emax refers to the greatest response seen or fitted, relative to the assay's reference. As a reminder, the EC50 is the concentration that produces a half-maximal response.

In the case of `CCC[C@H](NC(=O)[C@H](CCC(N)=O)NC(=O)[C@H](CCCCN)NC(=O)[C@H](CCCNC(=N)N)NC(=O)[C@H](Cc1ccc(O)cc1)NC(=O)[C@H](CCCNC(=N)N)NC(=O)[C@H](CO)NC(=O)[C@H](Cc1ccc(O)cc1)NC(=O)[C@H](CO)NC(=O)[C@H](CC(=O)O)NC(=O)[C@H](C)NC(=O)[C@H](Cc1ccccc1)NC(=O)[C@@H](NC(=O)CNC(=O)[C@H](CC(=O)O)NC(=O)[C@@H](CO)NC(=O)[C@@H](N)Cc1c[nH]cn1)[C@@H](C)CC)C(=O)N[C@@H](C)C(=O)N[C@H](C(=O)N[C@@H](CCCCN)C(=O)N[C@@H](CCCCN)C(=O)N[C@@H](Cc1ccc(O)cc1)C(=O)N[C@@H](CC(C)C)C(=O)N[C@@H](C)C(=O)N[C@@H](C)C(=O)N[C@@H](CO[C@@H]1O[C@H](CO)[C@@H](O)[C@H](O)[C@H]1O)C(=O)N[C@@H](CC(C)C)C(N)=O)C(C)C` [CRA3005], the Emax at human VPAC1 receptor (CHO; read-out: VPAC1 Emax) amounted to 78%. For the same molecule, the EC50 at human VPAC1 receptor (read-out: VPAC1 EC50) was 1620 nM.
Turning to `CCC[C@H](NC(=O)[C@H](CCC(N)=O)NC(=O)[C@H](CCCCN)NC(=O)[C@H](CCCNC(=N)N)NC(=O)[C@H](Cc1ccc(O)cc1)NC(=O)[C@H](CCCNC(=N)N)NC(=O)[C@H](CO)NC(=O)[C@H](Cc1ccc(O)cc1)NC(=O)[C@H](CO)NC(=O)[C@H](CC(=O)O)NC(=O)[C@H](C)NC(=O)[C@H](Cc1ccccc1)NC(=O)[C@@H](NC(=O)CNC(=O)[C@H](CC(=O)O)NC(=O)[C@@H](CO)NC(=O)[C@@H](N)Cc1c[nH]cn1)[C@@H](C)CC)C(=O)N[C@@H](C)C(=O)N[C@H](C(=O)N[C@@H](CCCCN)C(=O)N[C@@H](CCCCN)C(=O)N[C@@H](Cc1ccc(O)cc1)C(=O)N[C@@H](CC(C)C)C(=O)N[C@@H](C)C(=O)N[C@@H](C)C(=O)N[C@H](C(=O)N[C@@H](CO[C@@H]1O[C@H](CO)[C@@H](O)[C@H](O)[C@H]1O)C(N)=O)C(C)C)C(C)C` [CRA3004], on human VPAC1 receptor, a half-maximal response (EC50) required 1370 nM. Also, the maximum response (Emax) on human VPAC1 receptor (CHO, read-out: VPAC1 Emax) amounted to 85%.
Take `CCC[C@H](NC(=O)[C@H](CCC(N)=O)NC(=O)[C@H](CCCCN)NC(=O)[C@H](CCCNC(=N)N)NC(=O)[C@H](Cc1ccc(O)cc1)NC(=O)[C@H](CCCNC(=N)N)NC(=O)[C@H](CO)NC(=O)[C@H](Cc1ccc(O)cc1)NC(=O)[C@H](CO)NC(=O)[C@H](CC(=O)O)NC(=O)[C@@H](NC(=O)[C@H](Cc1ccccc1)NC(=O)[C@@H](NC(=O)CCCNC(=O)[C@H](CC(=O)O)NC(=O)[C@@H](CO)NC(=O)[C@@H](N)Cc1c[nH]cn1)[C@@H](C)CC)[C@@H](C)O)C(=O)N[C@@H](C)C(=O)N[C@H](C(=O)N[C@@H](CCCCN)C(=O)N[C@@H](CCCCN)C(=O)N[C@@H](Cc1ccc(O)cc1)C(=O)N[C@@H](CC(C)C)C(=O)N[C@@H](C)C(=O)N[C@@H](C)C(=O)N[C@H](C(=O)N[C@@H](CC(C)C)C(=O)N[C@@H](CO[C@@H]1O[C@H](CO)[C@@H](O)[C@H](O)[C@H]1O)C(N)=O)C(C)C)C(C)C` [CRA3006]: the Emax on human PAC1 receptor amounted to 78%; on human VPAC1 receptor (CHO; read-out: VPAC1 Emax), 103%.
Take PACAP6–38 [reference compound]: the “Antagonism of PAC1” value at human PAC1 receptor (cAMP assay in CHO cells) is “unable to demonstrate antagonism”.
At human PAC1 receptor, `CC[C@H](C)[C@H](NC(=O)CNC(=O)[C@H](CC(=O)O)NC(=O)[C@@H](CO)NC(=O)[C@@H](N)Cc1c[nH]cn1)C(=O)N[C@@H](Cc1ccccc1)C(=O)N[C@H](C(=O)N[C@@H](CC(=O)O)C(=O)N[C@@H](CO)C(=O)N[C@@H](Cc1ccc(O)cc1)C(=O)N[C@@H](CO)C(=O)N[C@@H](CCCNC(=N)N)C(=O)N[C@@H](Cc1ccc(O)cc1)C(=O)N[C@@H](CCCNC(=N)N)C(=O)N[C@@H](CCCCN)C(=O)N[C@@H](CCC(N)=O)C(=O)N[C@@H](CC(C)C)C(=O)N[C@@H](C)C(=O)N[C@H](C(=O)N[C@@H](CCCCN)C(=O)N[C@@H](CCCCN)C(=O)N[C@@H](Cc1ccc(O)cc1)C(=O)N[C@@H](CC(C)C)C(=O)N[C@@H](C)C(=O)N[C@@H](C)C(=O)N[C@H](C(=O)N[C@@H](CC(C)C)C(N)=O)C(C)C)C(C)C)[C@@H](C)O` [2LS72–3] yielded an EC50 of 48.6 ± 32 nM and an Emax of 95.3 ± 8.1%.
Molecule `CC[C@H](C)[C@H](NC(=O)CNC(=O)[C@H](CC(=O)O)NC(=O)[C@H](CO)NC(=O)[C@@H](N)Cc1c[nH]cn1)C(=O)N[C@@H](Cc1ccccc1)C(=O)N[C@H](C(=O)N[C@@H](CC(=O)O)C(=O)N[C@@H](CO)C(=O)N[C@@H](Cc1ccc(O)cc1)C(=O)N[C@@H](CO)C(=O)N[C@@H](CCCNC(=N)N)C(=O)N[C@@H](Cc1ccc(O)cc1)C(=O)N[C@@H](CCCNC(=N)N)C(=O)N[C@@H](CCCCN)C(=O)N[C@@H](CCC(N)=O)C(=O)N[C@@H](CC(C)C)C(=O)N[C@@H](C)C(=O)N[C@H](C(=O)N[C@@H](CCCCN)C(=O)N[C@@H](CCCCN)C(=O)N[C@@H](Cc1ccc(O)cc1)C(=O)N[C@@H](CC(C)C)C(=O)N[C@@H](C)C(=O)N[C@@H](C)C(=O)N[C@H](C(=O)N[C@@H](CC(C)C)C(=O)N[C@@H](CO[C@@H]1O[C@H](CO)[C@@H](O[C@@H]2O[C@H](CO)[C@H](O)[C@H](O)[C@H]2O)[C@H](O)[C@H]1O)C(N)=O)C(C)C)C(C)C)[C@@H](C)O` [Compound 2LS80Lact] yielded an Emax on human PAC1 receptor of 144 ± 20.7%.
As to `CC[C@H](C)[C@H](NC(=O)CNC(=O)[C@H](CC(=O)O)NC(=O)[C@H](CO)NC(=O)[C@@H](N)Cc1c[nH]cn1)C(=O)N[C@@H](Cc1ccccc1)C(=O)N[C@H](C(=O)N[C@@H](CC(=O)O)C(=O)N[C@@H](CO)C(=O)N[C@@H](Cc1ccc(O)cc1)C(=O)N[C@@H](CO)C(=O)N[C@@H](CCCNC(=N)N)C(=O)N[C@@H](Cc1ccc(O)cc1)C(=O)N[C@@H](CCCNC(=N)N)C(=O)N[C@@H](CCCCN)C(=O)N[C@@H](CCC(N)=O)C(=O)N[C@@H](CC(C)C)C(=O)N[C@@H](C)C(=O)N[C@H](C(=O)N[C@@H](CCCCN)C(=O)N[C@@H](CCCCN)C(=O)N[C@@H](Cc1ccc(O)cc1)C(=O)N[C@@H](CC(C)C)C(=O)N[C@@H](C)C(=O)N[C@@H](C)C(=O)N[C@H](C(=O)N[C@@H](CC(C)C)C(N)=O)C(C)C)C(C)C)[C@@H](C)O` [2LS72–2], on human PAC1 receptor, the midpoint of the response, the EC50, lay at 90.7 nM and the Emax came out at 74.3 ± 9.7%.
As to `CCC[C@H](NC(=O)[C@H](CCC(N)=O)NC(=O)[C@H](CCCCN)NC(=O)[C@H](CCCNC(=N)N)NC(=O)[C@H](Cc1ccc(O)cc1)NC(=O)[C@H](CCCNC(=N)N)NC(=O)[C@H](CO)NC(=O)[C@H](Cc1ccc(O)cc1)NC(=O)[C@H](CO)NC(=O)[C@H](CC(=O)O)NC(=O)[C@@H](NC(=O)[C@H](Cc1ccccc1)NC(=O)[C@@H](CCC)NC(=O)CNC(=O)[C@H](CC(=O)O)NC(=O)[C@@H](CO)NC(=O)[C@@H](N)Cc1c[nH]cn1)[C@@H](C)O)C(=O)N[C@@H](C)C(=O)N[C@H](C(=O)N[C@@H](CCCCN)C(=O)N[C@@H](CCCCN)C(=O)N[C@@H](Cc1ccc(O)cc1)C(=O)N[C@@H](CC(C)C)C(=O)N[C@@H](C)C(=O)N[C@@H](C)C(=O)N[C@H](C(=O)N[C@@H](CC(C)C)C(=O)N[C@@H](CO[C@@H]1O[C@H](CO)[C@@H](O)[C@H](O)[C@H]1O)C(N)=O)C(C)C)C(C)C` [CRA3020], the values for the Emax on human PAC1 receptor and at human VPAC1 receptor (CHO; read-out: VPAC1 Emax) were 97% and 78%, respectively.

The values are drawn from paper PMC8887546, “Design and Synthesis of Brain Penetrant Glycopeptide Analogues of PACAP With Neuroprotective Potential for Traumatic Brain Injury and Parkinsonism” (Frontiers in drug discovery, 2022).
